Values quoted from earlier work, collected in patent US20020010148A1, “Oral combinations of hydroxocobalamin and folic acid” (priority 1999, published 2002).

How the values were obtained:
[1] = tested on: homocysteine levels; conditions: 0.4 mg hydroxocobalamin alone or with 0.5 mg/day or 5 mg/day folic acid, oral
[2] = oral doses of 1 mg or more; without intrinsic factor; dose-dependent
[3] = tested on: vitamin B12 deficiency; conditions: oral 1-2 mg/day; patients with pernicious anaemia

Nc1nc2ncc(CNc3ccc(C(=O)N[C@@H](CCC(=O)O)C(=O)O)cc3)nc2c(=O)[nH]1 [folic acid]
contribution to lowering of homocysteine levels [1]: main effect

C/C1=C2/[N-][C@H]([C@H](CC(N)=O)[C@@]2(C)CCC(=O)NC[C@@H](C)OP(=O)([O-])O[C@H]2[C@@H](O)[C@@H](n3cnc4cc(C)c(C)cc43)O[C@@H]2CO)[C@]2(C)N=C(/C(C)=C3N=C(/C=C4N=C1[C@@H](CCC(N)=O)C\4(C)C)[C@@H](CCC(N)=O)[C@]\3(C)CC(N)=O)[C@@H](CCC(N)=O)[C@]2(C)CC(N)=O.[Co+3].[OH-] [hydroxocobalamin]
contribution to lowering of homocysteine levels [1]: contributed little

Vitamin B12
passive absorption, share of the oral dose [2]: 1-2%

cyanocobalamin
adequacy of oral dosing to provide vitamin B12 [3]: fully adequate
